Source: patent US20220296722A1, “CONJUGATES AND CONJUGATES FOR USE IN PREVENTING OR TREATING OF BRAIN DAMAGE AND NEURODEGENERATIVE DISEASES” (MEDICORTEX FINLAND OY, priority 2019, published 2022)

Columns and labels:
[1] = Modified Irwin procedure: overt behavioural and physiological parameters after a single intraperitoneal dose; format: in vivo, Male CD-1 (ICR) mice; settings: for behavioural or physiological changes (modified Irwin): single dose, 3 mice, assessed 0.25-24 h
Description: (§1) MCF-013 was formulated as a clear solution by dissolving in 10% final volume ethanol and then making up to full volume with saline at concentrations of 0.1, 0.3, 1 and 4 mg provided material/mL. This provided doses of 1, 3, 10 and 40 mg provided material/kg when administered intraperitoneally in 10 ml/kg dosing volumes.
(§2) Male CD-1 (ICR) mice were acclimatised to the procedure room. Groups of 3 mice were administered with vehicle (ethanol:saline) [10:90], or MCF-013 at 1, 3, 10 or 40 mg/kg intraperitoneally in 10 mL/kg dosing volumes. Doses were administered in an escalating dose order. […] These tissues were then excised and weighed and any with overt macroscopic abnormalities were to be placed in 10 volumes neutral buffered formalin solution (Sigma Cat no: HT501128).

[2] = Gross macroscopic examination and weighing of major organs at 24 h after dosing; format: in vivo, Male CD-1 (ICR) mice
Description: as §1, §2

For `O=C(Nc1ccccc1OCCOc1ccc(O)c(O)c1OC[C@H]1O[C@@H](O)[C@H](O)[C@@H](O)[C@@H]1O)c1cccc(O)c1O` [MCF-013, N-{o-[2-(2-{[(2R,3S,4S,5R,6R)-3,4,5,6-Tetrahydroxytetrahydro-2Hpyran-2-yl]methoxy}-3,4-dihydroxyphenoxy)ethoxy]phenyl}2,3-dihydroxybenzamide], the “behavioural or physiological changes (modified Irwin)” value (“behavioural or physiological changes” below) ([1]; 1 mg/kg intraperitoneally) was “One of three mice (No. 6) showed slight hunched posture at 0.5 and 1h, and slight piloerection 0.5 h after dosing”, the “behavioural or physiological changes” value ([1]; 3 mg/kg intraperitoneally) was “One of three animals (mouse 9) showed slight hunched posture at 0.25 h after dosing” and the “behavioural or physiological changes” value ([1]; 10 mg/kg intraperitoneally) was “no behavioural or physiological changes were noted”. The “behavioural or physiological changes” value ([1]; 40 mg/kg intraperitoneally) was “no behavioural or physiological changes were noted”, the “tolerability over a 24 h period” value ([1]; 1, 3, 10 and 40 mg provided material/kg intraperitoneally, mice, compared with ethanol:saline [10:90] vehicle) was “well tolerated” and the “gross macroscopic examination of the major organs” value (“gross macroscopic examination” below) ([2]; 1 mg/kg intraperitoneally) was “caecum of mouse 6 was noted to be slightly distended with air”. The organ weights ([2]; 1 mg/kg intraperitoneally) was “normal”, the “gross macroscopic examination” value ([2]; 3 mg/kg intraperitoneally) was “no abnormalities” and the organ weights ([2]; 3 mg/kg intraperitoneally) was “normal”. The “gross macroscopic examination” value ([2]; 10 mg/kg intraperitoneally) was “no abnormalities”, the organ weights ([2]; 10 mg/kg intraperitoneally) was “normal” and the “gross macroscopic examination” value ([2]; 40 mg/kg intraperitoneally) was “no abnormalities”. For the same molecule, the organ weights ([2]; 40 mg/kg intraperitoneally) was “normal”.
